Data from BindingDB's records for doi:10.7270/Q2028PXQ (The Scripps Research Institute Molecular Screening Center, 2007).

molecular target: Steroidogenic factor 1 (Homo sapiens, UniProt Q13285); experiment: SF-1 driven luciferase reporter response, dose response, counter-screen for RORA activator project, CHO-K1 cells (AID 695); conditions: not given
Sequence (Q13285 whole entry): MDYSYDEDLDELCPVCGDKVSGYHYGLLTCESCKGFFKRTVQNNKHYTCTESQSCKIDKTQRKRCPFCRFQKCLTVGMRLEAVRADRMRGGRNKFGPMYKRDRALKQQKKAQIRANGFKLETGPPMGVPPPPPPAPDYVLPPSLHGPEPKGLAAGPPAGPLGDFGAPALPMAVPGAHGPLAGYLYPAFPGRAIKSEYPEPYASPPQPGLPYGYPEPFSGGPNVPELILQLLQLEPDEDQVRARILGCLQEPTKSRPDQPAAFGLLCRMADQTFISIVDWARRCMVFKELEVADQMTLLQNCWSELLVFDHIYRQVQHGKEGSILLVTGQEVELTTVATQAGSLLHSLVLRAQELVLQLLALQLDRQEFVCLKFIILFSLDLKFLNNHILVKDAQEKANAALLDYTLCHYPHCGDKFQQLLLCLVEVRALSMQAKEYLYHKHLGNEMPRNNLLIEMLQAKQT

Row | Compound | EC50
1 | O=C1N(CCCN2C(=O)C3(OCCO3)c3ccccc32)c2ccccc2C12OCCO2 [1'-[3-(2'-ketospiro[1,3-dioxolane-2,3'-indoline]-1'-yl)propyl]spiro[1,3-dioxolane-2,3'-indoline]-2'-one] | > 99000 nM
2 | COc1cc(C)c(C(C)C)cc1S(=O)(=O)n1cnc(C)c1 [1-(2-methoxy-4-methyl-5-propan-2-yl-phenyl)sulfonyl-4-methyl-imidazole] | 1320 nM
3 | CN1CCN(S(=O)(=O)c2ccc(Br)s2)CC1 [1-(5-bromanylthiophen-2-yl)sulfonyl-4-methyl-piperazine] | > 99000 nM
4 | Clc1ccccc1OCCn1cnc2ccccc21 [1-[2-(2-chloranylphenoxy)ethyl]benzimidazole] | 3670 nM
5 | O=C(c1ccc(-c2nnc(-c3ccccc3)o2)cc1)N1CCCCCC1 [1-azepanyl-[4-(5-phenyl-1,3,4-oxadiazol-2-yl)phenyl]methanone] | 252 nM
6 | Cn1c(SCc2ccccc2F)nc2cccnc21 [2-(2-Fluoro-benzylsulfanyl)-3-methyl-3H-imidazo[4,5-b]pyridine] | > 1220 nM
7 | Clc1ccc(-c2nnc(-c3ccccc3Cl)o2)cc1 [2-(2-chlorophenyl)-5-(4-chlorophenyl)-1,3,4-oxadiazole] | 233 nM
8 | COc1ccc(Nc2oc(-c3ccccc3Cl)nc2C#N)cc1 [2-(2-chlorophenyl)-5-(4-methoxyanilino)-1,3-oxazole-4-carbonitrile] | 2740 nM
9 | CCCCOC(=O)C(C)Oc1ccc(=O)n(-c2ccccc2)n1 (configuration not stated) [2-(6-keto-1-phenyl-pyridazin-3-yl)oxypropionic acid butyl ester] | > 99000 nM
10 | CCOC(=O)c1ccccc1NC(=O)CSc1nnnn1C1CCCCC1 [2-[2-(1-Cyclohexyl-1H-tetrazol-5-ylsulfanyl)-acetylamino]-benzoic acid ethyl ester] | > 99000 nM
11 | Cc1cc(NCCOCCO)n2ncc(-c3ccc(Cl)cc3)c2n1 [2-[2-[[3-(4-chlorophenyl)-5-methyl-7-pyrazolo[1,5-a]pyrimidinyl]amino]ethoxy]ethanol] | 485 nM
12 | CCCCOc1ccc(-c2nnn(CC(=O)NCc3ccco3)n2)cc1 [2-[5-(4-Butoxy-phenyl)-tetrazol-2-yl]-N-furan-2-ylmethyl-acetamide] | 1880 nM
13 | Nc1c(C(=O)NCCN2CCOCC2)c2nc3ccccc3nc2n1-c1ccc2c(c1)OCO2 [2-amino-1-(1,3-benzodioxol-5-yl)-N-(2-morpholin-4-ylethyl)pyrrolo[3,2-b]quinoxaline-3-carboxamide] | > 11000 nM
14 | COCCOC(=O)c1[nH]c2c(c1C)C(=O)CC(c1cc(OC)ccc1OC)C2 (configuration not stated) [2-methoxyethyl 6-(2,5-dimethoxyphenyl)-3-methyl-4-oxo-1,5,6,7-tetrahydroindole-2-carboxylate] | 7670 nM
15 | Cc1cc(N)c(NC2=CC(=O)CC(C)(C)C2)cc1C [3-(2-amino-4,5-dimethyl-anilino)-5,5-dimethyl-cyclohex-2-en-1-one] | > 11000 nM
16 | CC(=O)C(C)Oc1ccc2c3c(c(=O)oc2c1C)CCCC3 (configuration not stated) [3-(2-keto-1-methyl-propoxy)-4-methyl-7,8,9,10-tetrahydrobenzo[c]chromen-6-one] | 807 nM
17 | COc1cccc(-c2noc(-c3cccs3)n2)c1 [3-(3-methoxyphenyl)-5-(2-thienyl)-1,2,4-oxadiazole] | 226 nM
18 | COc1cccc(-c2noc(-c3cccnc3)n2)c1 [3-(3-methoxyphenyl)-5-(3-pyridinyl)-1,2,4-oxadiazole] | 1740 nM
19 | O=C1OC(N2CCN(Cc3ccccc3)CC2)c2ccccc21 (configuration not stated) [3-(4-benzylpiperazin-1-yl)-3H-2-benzofuran-1-one] | > 99000 nM
20 | Cc1cc(NC(=O)c2oc3ccccc3c2C)ccc1-n1cnnn1 [3-Methyl-benzofuran-2-carboxylic acid (3-methyl-4-tetrazol-1-yl-phenyl)-amide] | 3240 nM
21 | CCn1c(-c2ccc(N(C)C)cc2)nc2ccccc21 [4-(1-ethyl-2-benzimidazolyl)-N,N-dimethylaniline] | 540 nM
22 | COc1ccccc1-c1nc(-c2ccncc2)no1 [4-[5-(2-Methoxy-phenyl)-[1,2,4]oxadiazol-3-yl]-pyridine] | 1240 nM

Row | Compound | EC50
23 | Cc1ccccc1Cn1ccc(NC(=O)c2onc(C)c2Cl)n1 [4-chloranyl-3-methyl-N-[1-[(2-methylphenyl)methyl]pyrazol-3-yl]-1,2-oxazole-5-carboxamide] | 7180 nM
24 | COc1ccc(C(=O)Nc2cc(C)on2)cc1 [4-methoxy-N-(5-methyl-1,2-oxazol-3-yl)benzamide] | 918 nM
25 | Cc1ccc(-c2nc(C#N)c(NCc3ccco3)o2)cc1 [5-(2-furanylmethylamino)-2-(4-methylphenyl)-4-oxazolecarbonitrile] | 3420 nM
26 | Oc1coc2ccc(OCc3ccc(F)cc3)cc12 [5-(4-fluorobenzyl)oxycoumaran-3-one] | 1710 nM
27 | CCOc1ccc(-c2nc(C#N)c(NC3CC3)o2)cc1 [5-(cyclopropylamino)-2-(4-ethoxyphenyl)-1,3-oxazole-4-carbonitrile] | 4020 nM
28 | Cc1ccc2nc(Nc3ccc4[nH]c(O)nc4c3)c(-n3nc(C)cc3C)nc2c1 [5-[[3-(3,5-dimethyl-1-pyrazolyl)-6-methyl-2-quinoxalinyl]amino]-1,3-dihydrobenzimidazol-2-one] | > 1220 nM
29 | COc1cccc(NC(=O)c2nnn(Cc3ccc(Br)cc3F)c2N)c1 [5-amino-1-(4-bromo-2-fluoro-benzyl)-N-(3-methoxyphenyl)triazole-4-carboxamide] | 4380 nM
30 | O=C(Nc1ccc(N2CCCCC2)cc1)c1cncc(Br)c1 [5-bromanyl-N-(4-piperidin-1-ylphenyl)pyridine-3-carboxamide] | 1060 nM
31 | CCOc1cc(N2CCOCC2)c(OCC)cc1NS(=O)(=O)c1ccc(Cl)s1 [5-chloranyl-N-(2,5-diethoxy-4-morpholin-4-yl-phenyl)thiophene-2-sulfonamide] | 1220 nM
32 | CCN(CCCNC(=O)c1cn(CC)c2ccc(S(=O)(=O)N(C)C)cc2c1=O)c1cccc(C)c1 [6-(dimethylsulfamoyl)-1-ethyl-N-[3-(N-ethyl-3-methyl-anilino)propyl]-4-keto-quinoline-3-carboxamide] | > 99000 nM
33 | COC(=O)c1c(NC(=O)CC2SCC(C(=O)OC)NC2=O)sc2c1CCCC2 (configuration not stated) [6-[2-[(3-carbomethoxy-4,5,6,7-tetrahydrobenzothiophen-2-yl)amino]-2-keto-ethyl]-5-keto-thiomorpholine-3-carboxylic acid methyl ester] | > 99000 nM
34 | Cc1cccn2cc(-c3ccccc3)nc12 [8-methyl-2-phenyl-imidazo[1,2-a]pyridine] | 190 nM
35 | Cn1cccc1C(=O)OCc1csc(-c2ccccc2)n1 [(2-phenyl-1,3-thiazol-4-yl)methyl 1-methylpyrrole-2-carboxylate] | 129 nM
36 | CCOC(=O)CSc1nc2cc(OCC)ccc2cc1C#N [(3-Cyano-7-ethoxy-quinolin-2-ylsulfanyl)-acetic acid ethyl ester] | 3280 nM
37 | CC1=CCC(COC(=O)Nc2ccccc2)CC1 (configuration not stated) [(4-methylcyclohex-3-en-1-yl)methyl N-phenylcarbamate] | 1240 nM
38 | CCN(CC)C(=O)Oc1ccc2c(=O)c(-c3ccccc3)coc2c1 [(4-oxidanylidene-3-phenyl-chromen-7-yl) N,N-diethylcarbamate] | 826 nM
39 | CCOC(=O)Nc1ccc2c(c1)Nc1ccccc1S2 [(10H-Phenothiazin-2-yl)-carbamic acid ethyl ester] | > 3670 nM
40 | C=CCOc1ccc(C=CC(C)N=O)cc1 (configuration not stated) [(E)-4-(4-allyloxyphenyl)but-3-en-2-one oxime] | 1020 nM
41 | CCOc1ccc(C=CC(C)N=O)cc1 (configuration not stated) [(Z)-4-(4-ethoxyphenyl)-3-buten-2-one oxime] | > 407 nM
42 | O=C(Nc1nnc(C23CC4CC(CC(C4)C2)C3)s1)c1ccco1 [N-[5-(1-adamantyl)-1,3,4-thiadiazol-2-yl]furan-2-carboxamide] | 257 nM
43 | Cc1c(C(=O)OCC2CCCO2)[nH]c2c1C(=O)CC(c1ccco1)C2 (configuration not stated) [oxolan-2-ylmethyl 6-(furan-2-yl)-3-methyl-4-oxo-1,5,6,7-tetrahydroindole-2-carboxylate] | 1230 nM

More lines, now with the values ahead:

Row | EC50 | Compound
44 | 5530 nM | CC(C)CNS(=O)(=O)c1ccc(C(=O)Nc2ccc3c(c2)OCCO3)cc1 [MLS000032888]
45 | > 99000 nM | COc1ccc(C(O)P(=O)(O)CCc2ccccc2)cc1 (configuration not stated) [MLS000038577]
46 | 4800 nM | COc1ccc(C(=O)n2c(-c3ccco3)nc3ccccc32)cc1 [MLS000039368]
47 | 1300 nM | COc1ccccc1-c1nnc(NC(C)=O)s1 [MLS000041972]
48 | 2150 nM | CCn1c(Cn2nnc(-c3ccccc3)n2)nnc1SCC(=O)Nc1ccc(C(C)=O)cc1 [MLS000068275]
49 | 140 nM | CCOc1ccc2nc(NC(=O)c3cnccn3)sc2c1 [MLS000070707]
50 | 4830 nM | COc1ccc2nc(NC(=O)CSc3nnc(-c4ccoc4C)n3C)sc2c1 [MLS000073639]
51 | 5080 nM | CCc1nnc2c3cnn(-c4ccccc4)c3ncn12 [MLS000080478]
52 | 5050 nM | O=C(NCc1cccs1)c1noc2c1CCCC2 [MLS000087354]
53 | > 99000 nM | Cc1ccc2c(c1)c1c3n2CCCNC3CCC1 (configuration not stated) [MLS000105423]
54 | > 99000 nM | COc1ccc(CCC(=O)Nc2ccc3c(c2)OCCO3)cc1 [MLS000110197]
55 | > 99000 nM | CCOc1ccc2nc(N3CCC(C(=O)N4CCN(c5ccccn5)CC4)CC3)sc2c1 [MLS000119552]
56 | 4110 nM | O=C(Nc1ccc2nc(-c3ccc(Br)o3)[nH]c2c1)c1cccs1 [SMR000046012]
57 | > 99000 nM | Oc1ccc(Cl)cc1C=Nc1nc2ccccc2[nH]1 [SMR000103225]
58 | 6150 nM | Cc1nc(N=CN(C)C)sc1C(=O)Nc1ccccc1 [SMR000107046]

same assay, conditions: inactive by the depositor's call

Row | Compound | EC50
59 | O=c1c2ccccc2nc2ccc(NCc3ccco3)nn12 [2-(2-furanylmethylamino)-10-pyridazino[6,1-b]quinazolinone] | 27300 nM
60 | O=C(c1ccco1)N1CCN(c2ncnc3c(-c4ccccc4)nsc23)CC1 [2-furanyl-[4-(3-phenyl-7-isothiazolo[4,5-d]pyrimidinyl)-1-piperazinyl]methanone] | 21000 nM

Results, then the compound that gave them:

Row | EC50 | Compound
61 | 10900 nM | O=C(NC1CCCC1)c1cc(-c2cccs2)on1 [MLS000087238]
62 | 12700 nM | O=C(CSc1nc[nH]n1)Nc1nnc(-c2ccccc2)s1 [SMR000091719]
